The record followed here is paper PMC10799935, “Discovery of a peripheral 5HT2A antagonist as a clinical candidate for metabolic dysfunction-associated steatohepatitis” (Nature Communications, 2024).

Where “and” joins values, the source holds several entries; their conditions need not be identical. Equal values may be shown once.

One experiment concerns the target 5HT2A (Homo sapiens, UniProt P28223). The experiment is described as follows: Human 5HT2A inhibition assay (FLIPR calcium 6, 5HT stimulus, stably transfected HEK293 cells). The arrangement: expressed in transfected cells; host or cells: HEK293. Conditions: for inhibition at 1 µM: HEK293, 1 μM, read-out: % Inhibition at 1 μM (SD). The experiment is classed as cell-based. The method, then:
The derivatives were evaluated at a concentration of 1 μM for their antagonist activity on the 5HT2A receptor (Tables 1–3)[33],[34]. […] The cells were stained with 100 μL of cytosolic calcium dye using the FLIPR calcium 6 assay solution (Molecular devices, #R8190) supplemented with 2.5 mM probenecid (Sigma; P8761) and incubated for 1 h at 37 °C. After 1 h, the designated amount of the compound was treated in each well and incubated for another 1 h at 37 °C. […] Experimental conditions for the 5HT subtypes can be found in the Supporting Information (Supplementary Table 1).

In experiment [1] the test system is HFD-fed C57BL/6J mice. The experiment is described as follows: DIO mice: liver histology (H&E), NAFLD activity score (steatosis, inflammation, ballooning). To be noted: for Ballooning (NAFLD Activity Score), individual animals / Inflammation (NAFLD Activity Score), individual animals / Steatosis (NAFLD Activity Score), individual animals / Total Activity (Total NAFLD Activity Score), individual animals: DIO C57BL/6J mice, one value per animal; for Hepatocyte ballooning score, Mean Diff. (Vehicle vs. treated): Dunnett's multiple comparisons test. The experiment is classed as in vivo, mouse. The arrangement: key to Steatosis (NAFLD Activity Score), individual animals / Steatosis score, group mean: steatosis score 0-3 (0 <5% to 3 >66% fat accumulation). The source says: Epididymal, inguinal, and liver were harvested, fixed in 10% (w/v) neutral buffered formalin solution (Sigma-Aldrich), and embedded in paraffin. Five-micron-thick tissue sections were deparaffinized, rehydrated, and stained with hematoxylin and eosin (H&E)[10]. The total NAFLD activity score (NAS) is a widely used measure of grading for steatosis, lobular inflammation, and ballooning. The total NAS ranges from 0-8 and is the sum of unweighted scores for steatosis (0: <5%, 1: 5 ~ 33%, 2: 33 ~ 66%, 3: >66% fat accumulation in the liver), lobular inflammation (0: no foci inflammation in x200 field, 1: <2 foci inflammation, 2: 2 ~ 4 foci inflammation, 3: >4 foci inflammation), and hepatocellular ballooning (0: none, 1: few ballooning cells, 2: prominent ballooning cells). MASH was diagnosed when NAS was >5, while non-MASH was diagnosed when NAS was <4. According to the MASH CRN scoring system, a certified pathologist determined the NAS[39]. The histological scoring was performed blindly, without knowledge of any other information.

In experiment [2] the test system is HFD-fed C57BL/6J mice. The experiment is described as follows: DIO mice: blood profiling (serum cholesterol, triglyceride). The experiment is classed as in vivo, mouse. To be noted: PO; for Blood Biochemistry CHO, individual animals / Blood Biochemistry TG, individual animals: DIO C57BL/6J mice, one value per animal; for Blood Biochemistry CHO, individual animals: serum total cholesterol; for Blood Biochemistry TG, individual animals: serum; for Serum TG levels, group mean / Serum total cholesterol levels (CHO), group mean: DIO mice. The method, then:
Blood samples were obtained by cardiac puncture, and plasma was isolated. Blood profiling was performed by GC Pharma (Green Cross Corporation). Plasma TG and cholesterol were detected with an in vitro enzymatic colorimetric assay (CHOL2 and TRIGL; Roche, Germany) using a Cobas 8000 clinical analyzer with a c702 module (Roche).

The subject of experiment [3] is HFD-fed C57BL/6J mice. As to the kind of experiment: DIO mice: quantification of hepatic triglyceride. The experiment is classed as in vivo, mouse. To be noted: PO, liver; for Hepatic TG Levels, TG, individual animals / Hepatic TG Levels, TG per protein, individual animals: DIO C57BL/6J mice, one value per animal; for Hepatic TG Levels, TG, individual animals / Hepatic TG Levels, TG, group mean: not normalised; for Hepatic TG Levels, TG per protein, group mean / Hepatic TG Levels, TG, group mean: DIO mice. As for the experimental part: Liver tissues were homogenized in 5% NP-40 using FastPrep-24. To solubilize fat, the homogenates were heated to 95 °C for 5 min and cooled at 23 °C, and repeated. Triglyceride Reagent (Sigma-Aldrich) or DW was added and incubated at 37 °C for 30 min to hydrolyze TG into glycerol. For the colorimetric assay of hydrolyzed TG levels, samples were incubated with Free Glycerol Reagent (Sigma-Aldrich) at 37 °C for 5 min. Differences in absorbance at 540 nm between hydrolyzed or non-hydrolyzed TG were quantified using a glycerol standard (Sigma-Aldrich). […]

In experiment [4] the test system is lipogenesis-related genes. As to the kind of experiment: DIO mice: qRT-PCR of lipogenesis-related genes in liver. The experiment is classed as in vivo, mouse. To be noted: DIO, PO, fold vs vehicle; for Fasn (Fold), Mean / Htr2a (Fold), Mean / Pparg (Fold), Mean / Srebp1c (Fold), Mean: group mean; for Fasn (Fold) / Htr2a (Fold) / Pparg (Fold) / Srebp1c (Fold): individual mouse. As for the experimental part: Total RNA extractions from harvested tissues were performed using TRIzol according to the manufacturer’s protocol. After TURBO DNase (Invitrogen) treatment, 2 μg of total RNA was used to generate complementary DNA with a High-Capacity cDNA Reverse Transcription Kit (Thermo Fisher Scientific). Quantitative RT-PCR was performed with Fast SYBR Green Master Mix (Thermo Fisher Scientific) and a Viia 7 Real-time PCR System (Thermo Fisher Scientific) according to the manufacturer’s instructions. Gene expression was relatively quantified based on the delta-delta Ct (threshold cycle) method with the beta-actin gene as a reference gene. The sequence of primers can be found in the Supporting Information (Supplementary Table 2).

Where [5] appears, read: DIO mice, PO, 10mpk, mean, 10 mg/kg.

Sequence of 5HT2A (P28223 whole entry): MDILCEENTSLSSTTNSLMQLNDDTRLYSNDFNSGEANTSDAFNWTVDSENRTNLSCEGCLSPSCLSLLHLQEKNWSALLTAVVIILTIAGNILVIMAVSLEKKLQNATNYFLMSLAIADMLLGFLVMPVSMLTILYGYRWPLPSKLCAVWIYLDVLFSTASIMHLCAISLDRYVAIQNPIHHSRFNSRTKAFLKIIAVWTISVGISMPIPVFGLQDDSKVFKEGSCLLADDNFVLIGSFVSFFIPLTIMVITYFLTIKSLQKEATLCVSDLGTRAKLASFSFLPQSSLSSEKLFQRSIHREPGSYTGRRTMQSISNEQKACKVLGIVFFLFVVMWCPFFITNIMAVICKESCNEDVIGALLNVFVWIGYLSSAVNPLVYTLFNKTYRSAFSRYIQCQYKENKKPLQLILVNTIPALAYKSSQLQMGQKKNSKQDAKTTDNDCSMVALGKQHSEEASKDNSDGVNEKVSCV

Broadly, the IC50 is the concentration at which inhibition is half-maximal. The inhibition is the change of the read-out against control, counted positive when it falls. As to `O=C1Cc2cc(C(O)CN3CCC(=C4c5ccc(Cl)cc5CCc5cccnc54)CC3)c(Cl)cc2N1` (centres unmarked) [Compound 9c], at 5HT2A, the IC50 came out at 0.0222 µM and the inhibition at 1 µM was 93.8 ± 3.13%.

With `Cc1nc2n(c(=O)c1CCN1CCC(=C3c4ccc(Cl)cc4CCc4cccnc43)CC1)CCCC2O` (racemic) [GM106], in the experiment on HFD-fed C57BL/6J mice [1] (PO, 5mpk, 5 mg/kg), the “Ballooning (NAFLD Activity Score), individual animals” value is 2.00 and 1.00 and 0.00; the “Inflammation (NAFLD Activity Score), individual animals” value is 2.00 and 1.00; the “Steatosis (NAFLD Activity Score), individual animals” value is 3.00 and 2.00 and 1.00; the “Total Activity (Total NAFLD Activity Score), individual animals” value was 7.00 and 5.00 and 3.00 and 6.00 and 2.00 and 4.00. In addition, in the experiment with HFD-fed C57BL/6J mice [1] (PO, 10mpk, 10 mg/kg), the “Ballooning (NAFLD Activity Score), individual animals” value was 0.00 and 1.00 and 2.00; the “Inflammation (NAFLD Activity Score), individual animals” value was 1.00 and 2.00 and 0.00; the “Steatosis (NAFLD Activity Score), individual animals” value was 0.00 and 1.00; the “Total Activity (Total NAFLD Activity Score), individual animals” value is 1.00 and 3.00 and 5.00 and 0.00. Also, the “Hepatocyte ballooning score, Mean Diff. (Vehicle vs. treated)” value in the experiment with HFD-fed C57BL/6J mice [1] (DIO mice, 5mpk) amounted to 0.2857. The “Hepatocyte ballooning score, Mean Diff. (Vehicle vs. treated)” value in the experiment on HFD-fed C57BL/6J mice [1] (DIO mice, 10mpk) is reported as 1. Besides, in the experiment on HFD-fed C57BL/6J mice [1] (DIO mice, PO, 5mpk, mean, 5 mg/kg), the “Steatosis score, group mean” value came out at 2.0. Moreover, the “Steatosis score, group mean” value in the experiment on HFD-fed C57BL/6J mice [1] (DIO mice, PO, 10mpk, mean) was 0.5. In the experiment with HFD-fed C57BL/6J mice [1] (setting [5]), the “Hepatocyte ballooning score, group mean” value was 1 and the “Lobular inflammation score, group mean” value is on record as 1.0. In the experiment on HFD-fed C57BL/6J mice [2] (5mpk, 5 mg/kg), the “Blood Biochemistry CHO, individual animals” value was 245.45 mg/dL and 237.41 mg/dL and 246.17 mg/dL and 215.59 mg/dL and 143.17 mg/dL and 210.2 mg/dL and 246.37 mg/dL; the “Blood Biochemistry TG, individual animals” value is 80.27 mg/dL and 61.12 mg/dL and 86.84 mg/dL and 48.55 mg/dL and 85.94 mg/dL and 70.5 mg/dL and 70.39 mg/dL; the “Serum total cholesterol levels (CHO), group mean” value came out at 220.62 mg/dL. In the experiment with HFD-fed C57BL/6J mice [2] (10mpk, 10 mg/kg), the “Blood Biochemistry CHO, individual animals” value was 190.51 mg/dL and 195.99 mg/dL and 228.58 mg/dL and 208.99 mg/dL and 197.21 mg/dL and 184.2 mg/dL; the “Blood Biochemistry TG, individual animals” value was 45.42 mg/dL and 58.97 mg/dL and 70.76 mg/dL and 76.11 mg/dL and 81.65 mg/dL and 74.22 mg/dL; the “Serum total cholesterol levels (CHO), group mean” value came out at 200.91 mg/dL. In addition, the “Serum TG levels, group mean” value in the experiment with HFD-fed C57BL/6J mice [2] (5mpk) was found to be 71.94 mg/dL. Also, the “Serum TG levels, group mean” value with HFD-fed C57BL/6J mice [2] (10mpk) is given as 67.86 mg/dL. In the experiment with HFD-fed C57BL/6J mice [3] (5mpk, 5 mg/kg), the “Hepatic TG Levels, TG, individual animals” value is 0.07575 mg/mL and 0.09502 mg/mL and 0.09001 mg/mL and 0.07002 mg/mL and 0.1053 mg/mL and 0.1094 mg/mL and 0.1015 mg/mL; the “Hepatic TG Levels, TG per protein, individual animals” value was 71.5854 mg/g protein and 74.7025 mg/g protein and 51.6625 mg/g protein and 103.84 mg/g protein and 123.461 mg/g protein and 75.9936 mg/g protein and 58.3099 mg/g protein. Further, in the experiment on HFD-fed C57BL/6J mice [3] (10mpk, 10 mg/kg), the “Hepatic TG Levels, TG, individual animals” value is 0.06336 mg/mL and 0.0751 mg/mL and 0.08726 mg/mL and 0.101 mg/mL and 0.08773 mg/mL and 0.06215 mg/mL; the “Hepatic TG Levels, TG per protein, individual animals” value is 41.8429 mg/g protein and 54.7941 mg/g protein and 65.6095 mg/g protein and 56.3849 mg/g protein and 74.0866 mg/g protein and 34.3504 mg/g protein. Moreover, in the experiment with HFD-fed C57BL/6J mice [3] (5mpk), the “Hepatic TG Levels, TG per protein, group mean” value turned out to be 79.94 mg/g protein and the “Hepatic TG Levels, TG, group mean” value stood at 0.09 mg/mL. In addition, in the experiment with HFD-fed C57BL/6J mice [3] (10mpk), the “Hepatic TG Levels, TG per protein, group mean” value was found to be 54.51 mg/g protein and the “Hepatic TG Levels, TG, group mean” value is reported as 0.08 mg/mL. For the same compound, in experiment [4] (5mpk, 7 mice), the “Fasn (Fold), Mean” value is 0.745; the “Htr2a (Fold), Mean” value is recorded as 0.510; the “Pparg (Fold), Mean” value came out at 0.893; the “Srebp1c (Fold), Mean” value is given as 0.768. For the same compound, in experiment [4] (5mpk, 5 mg/kg), the “Fasn (Fold)” value was 0.6490 and 1.2211 and 0.8546 and 0.7608 and 0.3082 and 0.7010 and 0.7176; the “Htr2a (Fold)” value was 0.4721 and 0.7255 and 0.4948 and 0.4297 and 0.7599 and 0.2475 and 0.4420; the “Pparg (Fold)” value was 0.9158 and 1.2274 and 0.7611 and 0.5677 and 1.3805 and 0.7174 and 0.6847; the “Srebp1c (Fold)” value is 0.9242 and 0.7728 and 0.8708 and 0.7607 and 0.6589 and 0.3460 and 1.0400. In experiment [4] (10mpk, 6 mice), the “Fasn (Fold), Mean” value was 0.560; the “Htr2a (Fold), Mean” value is on record as 0.414; the “Pparg (Fold), Mean” value was 1.032; the “Srebp1c (Fold), Mean” value is 0.496. Also, in experiment [4] (10mpk, 10 mg/kg), the “Fasn (Fold)” value is 0.3894 and 0.5870 and 0.6740 and 0.7101 and 0.3290 and 0.6694; the “Htr2a (Fold)” value was 0.4677 and 0.2891 and 0.2762 and 0.4976 and 0.4041 and 0.5480; the “Pparg (Fold)” value was 0.7506 and 1.1267 and 1.0050 and 0.9956 and 1.2727 and 1.0412; the “Srebp1c (Fold)” value was 0.4795 and 0.5418 and 0.5388 and 0.5056 and 0.4290 and 0.4815.

With `O=C(CN1CCC(=C2c3ccc(Cl)cc3CCc3cccnc32)CC1)c1ccc(Br)cc1` [Compound 8a], on 5HT2A, the IC50 came out at 0.0814 µM and the inhibition at 1 µM stood at 83.2 ± 1.98%.

One may read the % Inhibition as the drop in the measured response relative to a control, in per cent. As to `Cc1nc2n(c(=O)c1CCN1CCC(=C3c4ccc(Cl)cc4CCc4cccnc43)CC1)CCC[C@@H]2O` (single isomer, unassigned) [22 f], the “% Inhibition at 1 μM (SD)” value on 5HT2A was 96.07 ± 1.87%.

For `OC(CN1CCC(=C2c3ccc(Cl)cc3CCc3cccnc32)CC1)c1ccc(Br)cc1` (centres unmarked) [Compound 9a], on 5HT2A, the IC50 is 0.0319 µM and the inhibition at 1 µM turned out to be 92 ± 1.07%.

Consider `O=C1Cc2cc(C(=O)CN3CCC(=C4c5ccc(Cl)cc5CCc5cccnc54)CC3)c(Cl)cc2N1` [Compound 8c], for which, on 5HT2A, the “% Inhibition at 1 μM (SD)” value worked out at 73.02 ± 0.51% and the inhibition at 1 µM was determined as 73%.

`O=C1Cc2cc(CCN3CCC(=C4c5ccc(Cl)cc5CCc5cccnc54)CC3)c(Cl)cc2N1` [Compound 11a]: the “% Inhibition at 1 μM (SD)” value at 5HT2A is listed as 94.47 ± 1.53%.
